Measurements published in US10058611B2, “Use of α-(8-quinolinyloxy) mono-substituted phthalocyanine zinc for treatment of psoriasis” (BEIJING GUIQIANJIN MEDICAL SCIENCE AND TECHNOLOGY CO., LTD., priority 2014, dated 2018).

What was measured:
[1] = tested on: propranolol-induced psoriasis-like lesions; assay: Propranolol-induced psoriasis-like lesions on guinea pig ears (PDT, histology); format: in vivo
Excerpt: Propranolol is a β-adrenergic receptor blocking agent, and it may be applied to guinea pig skin to block the β-adrenergic receptor in keratinocytes and thereby reducing the intracellular cAMP level, leading to histopathological changes similar to psoriasis such as hyperkeratosis, parakeratosis and acanthosis of animal epidermis, which are the same as human psoriatic lesions at the molecular level. Application of propranolol to ear skin of guinea pig to replicate a psoriasis-like skin model is often used for observing the therapeutic effect of a drug on psoriasis.
Preparation method for 5% propranolol liniment: dissolving 5 g powder of propranolol API in 50 mL of 50% ethanol, adding 5 g of polyoxyethylene pyrrolidone 30, 2.5 mL of azone, 2.5 mL of propylene glycol, and finally adding 50% ethanol to 100 mL. 5% propranolol was prepared fresh for use. Forty-two guinea pigs were randomly divided into a blank control group and a model-establishing group according to weights, 6 guinea pigs in the blank control group and 36 guinea pigs in the model-establishing group. 5% propranolol was applied uniformly on the back of both ears of guinea pigs in the model-establishing group at a dose of 0.1 mL/ear, once in the morning and once in the afternoon, and the administration lasted for continuous 4 weeks. After the model was established, the guinea pigs in the model-establishing group were randomly divided into 6 groups according to weights again, 6 guinea pigs in each group. The 6 groups were model control group, irradiation without administration group, administration without irradiation group, injection administration group and topical administration groups 1 and 2, respectively. The administration without irradiation group and the injection administration group were intravenously injected with α-(8-quinolinyloxy) mono-substituted phthalocyanine zinc solution at a dose of 0.45 mg/kg and the topical administration groups 1 and 2 were respectively applied with 5% and 1% α-(8-quinolinyloxy) mono-substituted phthalocyanine zinc liniments at a dose of 0.1 mL/ear. […] were not administrated. After protection from light for 24 hours, the irradiation without administration group, the injection administration group and the topical administration groups 1 and 2 were subjected to laser irradiation by using a semiconductor photodynamic therapeutic instrument with the following irradiation conditions: output power, 1,000 mW; spot diameter, 6 cm; irradiation time, 399 s; irradiation dose, 14 J/cm^2. After irradiation, animals were protected from light for 48 hours, and then recovered for 3 days. A photodynamic therapy (administration, irradiation, protection from light and recovery) was repeated once according to the abovementioned steps. […]

HaCaT cells = assay: Proliferation inhibition of HaCaT cells after 670 nm irradiation (MTT); format: cell-based, human
Procedure: HaCaT cell line, a cell line of normally mutated and immortalized human keratinocyte, is one of the most wildly used cell models for the currently study of psoriasis. As compared with primary cultured keratinocytes, HaCaT cells have similar biological properties, but its operation is simpler.
HaCaT cells were routinely cultured in RPMI-1640 medium containing 10% fetal bovine serum at 37° C. in a 5% CO2 incubator. The cells were harvested in logarithmic growth phase, digested with 0.25% trypsin (containing EDTA), adjusted to a cell density of 2×10^5 cells/mL and seeded in a 96-well plate, 100 μL per each well; after incubation for 24 hours, α-(8-quinolinyloxy) mono-substituted phthalocyanine zinc was added at concentrations of 0.001 μg/mL, 0.01 μg/mL, 0.1 μg/mL, 1 μg/mL and 10 μg/mL respectively and three complex wells were set for each concentration. […] The culture medium was discarded; 200 μL of MTT solution (0.5 mg/mL) was added to each well; the cells were incubated for additional 4 hours; then, 200 μL of dimethyl sulfoxide was added to each well and the absorbance value of each well was measured by a microplate reader at 545 nm (reference wavelength: 450 nm). 3 times of parallel measurements were conducted and the mean value was calculated. The inhibition rate of proliferation was calculated and IC50 was calculated by Bliss method.

[2] = tested on: mouse vaginal epithelial cells; assay: Diethylstilbestrol-induced excessive proliferation of mouse vaginal epithelial cells (PDT, mitotic index); format: in vivo, ICR mice; settings: for Mitotic Index: x ± s, n = 10
Excerpt: Estrogen (for example diethylstilbestrol) may induce the active proliferation of mouse vaginal epithelial cells, thereby accelerating the turnover of epithelial cells; and colchicine may make the cell cycle stagnated in the mitotic metaphase and then the inhibition effects of a test substance on mitosis and excessive cell proliferation may be observed. This model may simulate the characteristic of overly rapid proliferation of epithelial cells in psoriasis patients, is simple and easy to obtain, and is one of the most common animal models in the assessment of drug efficacy for psoriasis.
Sixty ICR mice were taken and randomly divided into 6 groups according to weights: blank control group, model control group, irradiation without administration group and PDT groups 1, 2 and 3. Except for the blank control group, all of other groups were intraperitoneally injected with diethylstilbestrol (0.2 mg/mouse), once-daily for 3 days. […] After protection from light for 6 hours, the PDT groups 1, 2 and 3 and the irradiation without administration group were subjected to laser irradiation by using a semiconductor photodynamic therapeutic instrument; the irradiation conditions were 100 mW×540 s, 300 mW×60 s, 100 mW×60 s and 300 mW×540 s, respectively; the spot diameter was 3 cm; and the abdomen of mice was irradiated. The blank control group and the model control group were not subjected to irradiation. After one week post-irradiation, mice of each group were intraperitoneally injected with colchicine at a dose of 2 mg/kg, making the cell mitosis stagnated in the mitotic metaphase. After 4 hours post-injection of colchicine, animals were sacrificed by anesthesia. Mouse vagina was taken, fixed in 10% formaldehyde solution, conventionally dehydrated, embedded in paraffin, sliced and stained with HE; 300 basal cells were counted under a microscope and the number of mitotic cells was calculated and the mitotic index was calculated (number of mitotic cells per 100 basal cells).

## α-(8-quinolinyloxy) mono-substituted phthalocyanine zinc
[1]; administration without irradiation group: 0.45 mg/kg i.v., no laser
  Psoriasis-like lesions of the guinea pig ear (result in words): improved to some extent but not obviously
[1]; injection administration group: 0.45 mg/kg i.v., laser 1,000 mW, 399 s, 14 J/cm^2, two photodynamic therapies
  Psoriasis-like lesions of the guinea pig ear (result in words): improved significantly
[1]; topical administration group 1: 5% liniment 0.1 mL/ear, laser 1,000 mW, 399 s, 14 J/cm^2, two photodynamic therapies
  Psoriasis-like lesions of the guinea pig ear (result in words): improved significantly
[1]; topical administration group 2: 1% liniment 0.1 mL/ear, laser 1,000 mW, 399 s, 14 J/cm^2, two photodynamic therapies
  Psoriasis-like lesions of the guinea pig ear (result in words): improved significantly
HaCaT cells; 0.001-10 μg/mL, 670 nm irradiation
  Proliferation of HaCaT cells (result in words): inhibit the proliferation of HaCaT cells in a concentration-dependent manner
HaCaT cells; 4 h incubation, 670 nm irradiation 1500 mW, spot 8 cm, 180 s, MTT 48 h after irradiation, Bliss method
  IC50, inhibition of proliferation of HaCaT cells: 0.197 ± 0.022 µg/mL
[2]; PDT group 1: dose 2 mg/kg i.p., irradiation 540 s, 100 mW
  Mitotic Index: 6.4 ± 2.2^##^ %
[2]; PDT group 2: dose 1 mg/kg i.p., irradiation 60 s, 300 mW
  Mitotic Index: 7.2 ± 2.6 %
[2]; PDT group 3: dose 0.5 mg/kg i.p., irradiation 60 s, 100 mW
  Mitotic Index: 10.3 ± 4.3 %
[2]; PDT groups 1, 2 and 3
  Mitotic index compared with the model control group (result in words): significantly reduced
